Data: patent US10058550B2, “Methods of treating heart failure” (priority 2015, dated 2018)

These molecules were tested against human APJ receptor (Homo sapiens (Human), UniProt P35414) (assay: biochemical). Conditions: read-out: Activity hAPJ SPA EC50 IP.
human APJ receptor, sequence (P35414 whole entry): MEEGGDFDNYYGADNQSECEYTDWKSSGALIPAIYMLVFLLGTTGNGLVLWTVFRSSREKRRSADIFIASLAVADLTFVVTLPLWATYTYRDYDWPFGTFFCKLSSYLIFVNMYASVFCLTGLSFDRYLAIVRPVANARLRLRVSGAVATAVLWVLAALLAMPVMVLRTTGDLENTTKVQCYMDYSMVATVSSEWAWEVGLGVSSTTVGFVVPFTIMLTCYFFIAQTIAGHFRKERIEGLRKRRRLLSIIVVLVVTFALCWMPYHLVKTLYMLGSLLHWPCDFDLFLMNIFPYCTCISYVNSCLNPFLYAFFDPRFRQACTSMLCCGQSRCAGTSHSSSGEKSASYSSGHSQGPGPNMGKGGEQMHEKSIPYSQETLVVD
Format: biochemical
Protocol: The human APJ receptor was cloned by polymerase chain reaction and the gene encoding the receptor was subcloned in pFLAG-CMV™-3 expression vector (Sigma, Saint Louis, Mo. USA) in-house at Amgen. A GTPγS binding assay was performed on membranes prepared from CHO cells stably expressing human APJ receptor. The optimum experimental conditions for the concentrations of GDP, MgCl2, and NaCl in the assay buffer were initially determined. The assay was performed in assay buffer [20 mM HEPES, pH 7.5, 5 mM MgCl2, and 0.1% (w/v) BSA with 200 mM NaCl, 3 μM GDP] and membranes expressing human APJ receptor/well along with WGA PS beads. The reaction was initiated by addition of 0.2 nM [^35S]GTPγS (Perkin Elmer Life and Analytical Sciences, Waltham USA) in the absence or presence of various ligands and incubated at RT for 90 min. […] All the results presented are means of several independent experiments and analyzed by non-linear regression methods using commercially available program Prism (GraphPad, San Diego, Calif.) to obtain EC50 detailed in Table 58.
COc1cccc(-c2nnc(NS(=O)(=O)[C@@H](C)[C@H](OC)c3ncc(C)cn3)n2-c2ccccc2C(F)(F)F)n1 (atropisomer, axis not shown; (P)) [Example 74.0, (1R,2S,P)-1-methoxy-N-(5-(6-methoxy-2-pyridinyl)-4-(2-(trifluoromethyl)phenyl)-4H-1,2,4-triazol-3-yl)-1-(5-methyl-2-pyrimidinyl)-2-propanesulfonamide and (1R,2S,M)-1-methoxy-N-(5-(6-methoxy-2-pyridinyl)-4-(2-(trifluoromethyl)phenyl)-4H-1,2,4-triazol-3-yl)-1-(5-methyl-2-pyrimidinyl)-2-propanesulfonamide] showed an EC50 of 2.5 nM.
For COc1cccc(-c2nnc(NS(=O)(=O)[C@@H](C)[C@H](OC)c3ncc(C)cn3)n2-c2ccccc2F)n1 (atropisomer, axis not shown; (P)) [Example 76.0, (1R,2S,P)-N-(4-(2-fluorophenyl)-5-(6-methoxy-2-pyridinyl)-4H-1,2,4-triazol-3-yl)-1-methoxy-1-(5-methyl-2-pyrimidinyl)-2-propanesulfonamide and (1R,2S,M)-N-(4-(2-fluorophenyl)-5-(6-methoxy-2-pyridinyl)-4H-1,2,4-triazol-3-yl)-1-methoxy-1-(5-methyl-2-pyrimidinyl)-2-propanesulfonamide], the EC50 was 3 nM.
COc1cccc(-c2nnc(NS(=O)(=O)[C@H](C)Cc3ncc(F)cn3)n2-c2ccccc2OC)n1 (mixture of isomers) [Example 31.0, (2R)-1-(5-fluoropyrimidin-2-yl)-N-(4-(2-methoxyphenyl)-5-(6-methoxypyridin-2-yl)-4H-1,2,4-triazol-3-yl)propane-2-sulfonamide and (2S)-1-(5-fluoropyrimidin-2-yl)-N-(4-(2-methoxyphenyl)-5-(6-methoxypyridin-2-yl)-4H-1,2,4-triazol-3-yl)propane-2-sulfonamide] showed an EC50 of 2.4 nM.
COc1cccc(-c2nnc(NS(=O)(=O)[C@H](C)Cc3ncc(F)cn3)n2-c2c(C)noc2C)n1 (mixture of isomers) [Example 32.0, (2R)-N-(4-(3,5-dimethylisoxazol-4-yl)-5-(6-methoxypyridin-2-yl)-4H-1,2,4-triazol-3-yl)-1-(5-fluoropyrimidin-2-yl)propane-2-sulfonamide and (2S)-N-(4-(3,5-dimethylisoxazol-4-yl)-5-(6-methoxypyridin-2-yl)-4H-1,2,4-triazol-3-yl)-1-(5-fluoropyrimidin-2-yl)propane-2-sulfonamide] gave an EC50 of 140 nM.
COc1cccc(-c2nnc(NS(=O)(=O)[C@H](C)C(=O)N3CCCC3)n2-c2c(OC)cccc2OC)n1 (mixture of isomers) [Example 83.0, (2R)-N-(4-(2,6-dimethoxyphenyl)-5-(6-methoxy-2-pyridinyl)-4H-1,2,4-triazol-3-yl)-1-oxo-1-(1-pyrrolidinyl)-2-propanesulfonamide and (2S)-N-(4-(2,6-dimethoxyphenyl)-5-(6-methoxy-2-pyridinyl)-4H-1,2,4-triazol-3-yl)-1-oxo-1-(1-pyrrolidinyl)-2-propanesulfonamide] showed an EC50 of 48 nM.
Work on COc1cccc(OC)c1-n1c(NS(=O)(=O)[C@@H](C)[C@H](C)c2ncc(F)cn2)nnc1-c1cccnc1 (mixture of isomers) [Example 182.0, (2R,3S)-N-(4-(2,6-dimethoxyphenyl)-5-(3-pyridinyl)-4H-1,2,4-triazol-3-yl)-3-(5-fluoro-2-pyrimidinyl)-2-butanesulfonamide and (2S,3R)-N-(4-(2,6-dimethoxyphenyl)-5-(3-pyridinyl)-4H-1,2,4-triazol-3-yl)-3-(5-fluoro-2-pyrimidinyl)-2-butanesulfonamide] yielded an EC50 of 1.1 nM.
Molecule COc1cccc(OC)c1-n1c(NS(=O)(=O)[C@@H](C)Cc2ncc(F)cn2)nnc1-c1ccccn1 (mixture of isomers) [Example 202.0, (2R)-N-(4-(2,6-dimethoxyphenyl)-5-(2-pyridinyl)-4H-1,2,4-triazol-3-yl)-1-(5-fluoro-2-pyrimidinyl)-2-propanesulfonamide and (2S)-N-(4-(2,6-dimethoxyphenyl)-5-(2-pyridinyl)-4H-1,2,4-triazol-3-yl)-1-(5-fluoro-2-pyrimidinyl)-2-propanesulfonamide] has an EC50 of 15.4 nM.
COc1cccc(-c2nnc(NS(=O)(=O)C[C@H](O)c3ccc(Cl)cc3)n2-c2c(OC)cccc2OC)n1 (mixture of isomers) [Example 264.0, (R)-2-(4-chlorophenyl)-N-(4-(2,6-dimethoxyphenyl)-5-(6-methoxypyridin-2-yl)-4H-1,2,4-triazol-3-yl)-2-hydroxyethanesulfonamide and (S)-2-(4-chlorophenyl)-N-(4-(2,6-dimethoxyphenyl)-5-(6-methoxypyridin-2-yl)-4H-1,2,4-triazol-3-yl)-2-hydroxyethanesulfonamide] gave an EC50 of 0.34 nM.
Molecule COc1cccc(OC)c1-n1c(NS(=O)(=O)C[C@@H](O)C2CCC2)nnc1-c1cncc(C)c1 (mixture of isomers) [Example 382.0, (R)-2-cyclobutyl-N-(4-(2,6-dimethoxyphenyl)-5-(5-methylpyridin-3-yl)-4H-1,2,4-triazol-3-yl)-2-hydroxyethanesulfonamide and (S)-2-cyclobutyl-N-(4-(2,6-dimethoxyphenyl)-5-(5-methylpyridin-3-yl)-4H-1,2,4-triazol-3-yl)-2-hydroxyethanesulfonamide] has an EC50 of 73 nM.
COc1cccc(-c2nnc(NS(=O)(=O)[C@H](C)[C@@H](O)C(C)(C)C)n2-c2c(OC)cccc2OC)n1 (mixture of isomers) [Example 433.0] was tested, and the EC50 was 42 nM.
With COc1cccc(OC)c1-n1c(NS(=O)(=O)[C@@H](C)[C@H](C)c2ncc(F)cn2)nnc1-c1cccc(C)n1 (mixture of isomers) [Example 452.0, (2S,3R)—N-(4-(2,6-dimethoxyphenyl)-5-(6-methyl-2-pyridinyl)-4H-1,2,4-triazol-3-yl)-3-(5-fluoro-2-pyrimidinyl)-2-butanesulfonamide and (2R,3S)—N-(4-(2,6-dimethoxyphenyl)-5-(6-methyl-2-pyridinyl)-4H-1,2,4-triazol-3-yl)-3-(5-fluoro-2-pyrimidinyl)-2-butanesulfonamide] the EC50 was 1 nM.
With COc1cccc(OC)c1-n1c(NS(=O)(=O)[C@@H](C)Cc2ncc(F)cn2)nnc1-c1cccc(C)n1 (mixture of isomers) [Example 618.0, (S)-N-(4-(2,6-dimethoxyphenyl)-5-(6-methylpyridin-2-yl)-4H-1,2,4-triazol-3-yl)-1-(5-fluoropyrimidin-2-yl)propane-2-sulfonamide and (R)-N-(4-(2,6-dimethoxyphenyl)-5-(6-methylpyridin-2-yl)-4H-1,2,4-triazol-3-yl)-1-(5-fluoropyrimidin-2-yl)propane-2-sulfonamide] the EC50 was 5.4 nM.
COc1cccc(OC)c1-n1c(NS(=O)(=O)[C@H](C)[C@@H](OC)c2ncnn2C)nnc1-c1cncc(C)c1 (mixture of isomers) [Example 637.0, (1S,2R)-N-(4-(2,6-dimethoxyphenyl)-5-(5-methylpyridin-3-yl)-4H-1,2,4-triazol-3-yl)-1-methoxy-1-(1-methyl-1H-1,2,4-triazol-5-yl)propane-2-sulfonamide and (1R,2S)-N-(4-(2,6-dimethoxyphenyl)-5-(5-methylpyridin-3-yl)-4H-1,2,4-triazol-3-yl)-1-methoxy-1-(1-methyl-1H-1,2,4-triazol-5-yl)propane-2-sulfonamide] gave an EC50 of 150 nM.
COc1cccc(OC)c1-n1c(NS(=O)(=O)[C@@H](C)[C@H](O)c2ccc(Br)c(C)n2)nnc1-c1cccnc1 (mixture of isomers) [Example 642.0, (1R,2S)-1-(5-bromo-6-methylpyridin-2-yl)-N-(4-(2,6-dimethoxyphenyl)-5-(pyridin-3-yl)-4H-1,2,4-triazol-3-yl)-1-hydroxypropane-2-sulfonamide and (1S,2R)-1-(5-bromo-6-methylpyridin-2-yl)-N-(4-(2,6-dimethoxyphenyl)-5-(pyridin-3-yl)-4H-1,2,4-triazol-3-yl)-1-hydroxypropane-2-sulfonamide] gave an EC50 of 0.48 nM.
Work on COc1cccc(-c2nnc(NS(=O)(=O)[C@H]3CCCO[C@H]3c3ncc(C)cn3)n2-c2c(OC)cccc2OC)n1 (mixture of isomers) [Example 648.0] yielded an EC50 of 33 nM.
In the case of COc1cccc(OC)c1-n1c(NS(=O)(=O)C(C)Cc2ncc(F)cn2)nnc1-c1cncc(Br)c1 (racemic) [Example 146.0, (2R)-N-(5-(5-bromo-3-pyridinyl)-4-(2,6-dimethoxyphenyl)-4H-1,2,4-triazol-3-yl)-1-(5-fluoro-2-pyrimidinyl)-2-propanesulfonamide and (2S)-N-(5-(5-bromo-3-pyridinyl)-4-(2,6-dimethoxyphenyl)-4H-1,2,4-triazol-3-yl)-1-(5-fluoro-2-pyrimidinyl)-2-propanesulfonamide], the EC50 is reported as 2.1 nM.
COc1cccc(OC)c1-n1c(NS(=O)(=O)[C@H](C)[C@@H](C)n2cc(C)cn2)nnc1-c1cncc(C)c1 (racemic) [Example 647.0] showed an EC50 of 1.7 nM.
Work on COc1cccc(OC)c1-n1c(NS(=O)(=O)[C@H](C)[C@@H](C)c2cnc(C)cn2)nnc1-c1cccnc1 (racemic) [Example 701.0, (2R,3S)-N-(4-(2,6-dimethoxyphenyl)-5-(3-pyridinyl)-4H-1,2,4-triazol-3-yl)-3-(5-methyl-2-pyrazinyl)-2-butanesulfonamide, (2S,3R)-N-(4-(2,6-dimethoxyphenyl)-5-(3-pyridinyl)-4H-1,2,4-triazol-3-yl)-3-(5-methyl-2-pyrazinyl)-2-butanesulfonamide] yielded an EC50 of 2 nM.
COc1cccc(-c2nnc(NS(=O)(=O)[C@@H](C)[C@@H](OC(C)C)c3ncc(C)cn3)n2-c2c(OC)cccc2OC)n1 (single isomer, unassigned) [Example 95.0] gave an EC50 of 0.11 nM.
